From US10975060B2, “High relaxivity gadolinium chelate compounds for use in magnetic resonance imaging” (BAYER PHARMA AKTIENGESELLSCHAFT, priority 2016, dated 2021)

Key:
Format in all cases: physicochemical
[1] = Relaxivity measurements at 3.0 T (whole body MRI scanner, 37 °C) in water and human plasma; conditions: normalized to Gd, average ± standard deviation
Description: Relaxivity Measurements at 3.0 T
Relaxivity measurements at 3.0 T were performed with a whole body 3.0 T MRI Scanner (Philips Intera, Philips Healthcare, Hamburg, Germany) using a knee-coil (SENSE-Knee-8, Philips Healthcare, Hamburg, Germany). The sample tubes (CryoTubetm Vials, Thermo Scientific 1.8 mL, Roskilde, Denmark) were positioned in 3 rows of 4 and 5 tubes in a plastic holder in a box filled with water. The temperature was adjusted to 37° C. For the MRI sequence the shortest possible echo-time (TE) with 7.46 milliseconds was used. The inversion times were chosen to optimize the sequence to measure T1 values corresponding to the estimated T1 range of all relaxation times of contrast media containing solutions. The following inversion times (TIs) were applied: 50, 100, 150, 200, 300, 500, 700, 1000, 1400, 2100, 3200, and 4500 milliseconds. The sequence was run with a constant relaxation delay of 3.4 seconds after the registration of the last echo (variable TR in the range from 3450 to 7900 milliseconds). For details of the fit procedure, see Rohrer et. al. (Invest. Radiol. 2005; 40, 11: 715-724). The experimental matrix of the phantom measurement was 320×320.
The relaxivities were evaluated using three different concentrations of each compound (3 concentrations between 0.05 and 2 mM).
The T1 relaxation times of Example compounds were measured in water and human plasma. Human plasma preparation: For each experiment fresh blood was taken from a volunteer using 10 mL citrate-tubes (Sarstedt S-Monovette 02.1067.001, 10 mL, Citrate). The 10 mL citrate-tubes were carefully inverted 10 times to mix blood and anticoagulant and centrifuged for 15 minutes at 1811 g at room temperature (Eppendorf, Centrifuge 5810R).
The relaxivities ri (where i=1, 2) were calculated on the basis of the measured relaxation rates Ri in water and plasma: Ri=Ri(0)+ri[CGd], where Ri(0) represent the relaxation rate of the respective solvent and CGd the concentration of the compound normalized to the Gadolinium (Table 2).

[2] = Water solubility (exploratory, 10 mM Tris-HCl, 20 °C); conditions: water (10 mM Tris-HCl buffer), pH 7.4
Description: The exploratory water solubilities of the compounds were determined at room temperature (20° C.) in 0.5 mL buffer solution (10 mM Tris-HCl) in the microcentrifuge tubes (Eppendorf, 2.0 mL safe-lock caps). The solid compounds were added stepwise to the buffer solution. The suspension was mixed using a shaker (Heidolph Reax 2000) and treated 5 min in an ultrasound bath (Bandelin, Sonorex Super RK255H).

[3] = Dynamic CT diffusion phantom study (dialysis cassette in fetal bovine serum); conditions: dialysis cassette 20,000 MWCO, 20 mmol Gd/L, CT signal over 30 h
Description: The described dynamic CT diffusion study compares the ability of Examples 1-10 and Reference compounds 1 and 4 to pass a semipermeable membrane (20 kDa). A 128-row clinical CT device (SOMATOM Definition, 128; Siemens Healthcare, Forchheim, Germany) was used to monitor the diffusion through a semipermeable membrane at 100 kV and 104 mA. Single measurements were performed at 0 min, 1 min, 2 min, 3 min, 5 min, 10 min, 15 min, 20 min, 30 min, 45 min, 60 min, 2 h, 3 h, 5 h, 7 h, 22 h, 24 h, 30 h after placing the dialysis cassette (Slide-A-Lyser, 20,000 MWCO, 0.1-0.5 mL Capacity, Thermo Scientific, Roskilde, Denmark) filled with contrast agent in fetal bovine serum solution (FBS, Sigma, F7524). The images were reconstructed with a slice thickness of 2.4 mm and a B30 convolution kernel. The used concentration in the dialysis cassettes of the investigated Examples 1-10 and Reference compounds 1 and 4 was 20 mmol Gd/L.
The imaging results for all investigated Examples and the Reference compounds 1 and 4 for the time points 0 min and 30 h after placing the cassettes in the FBS solution are depicted in FIG. 1. For image analysis, regions of interest were manually drawn on 1 centrally located slice for each time point (a representative measurement region is indicated in FIG. 1: Image RC1).

[4] = Relaxivity measurements at 1.4 T (MiniSpec mq60, 60 MHz, 37 °C) in water and human plasma; conditions: 1.41 T, normalized to Gd
Description: Relaxivity Measurements at 1.4 T
Relaxivity measurements at 1.41 T were performed using a MiniSpec mq60 spectrometer (Bruker Analytik, Karlsruhe, Germany) operating at a resonance frequency of 60 MHz and a temperature of 37° C. The T1 relaxation times were determined using the standard inversion recovery (IR) method with a fixed relaxation delay of at least 5×T1. The variable inversion time (TI) was calculated automatically by the standard software of the MiniSpec mq60 (8 steps). The T2 measurements were done by using a Carr-Purcell-Meiboom-Gill (CPMG) pulse sequence, applying a relaxation delay of at least 5×T1.
Each relaxivity measurement was performed using three different Gd concentrations (3 concentrations between 0.05 and 2 mM). The T1 and T2 relaxation times of the example compounds 1 to 10 were measured in different media for example in water and human plasma. Human plasma preparation: For each experiment fresh blood was taken from a volunteer using 10 mL citrate-tubes (Sarstedt S-Monovette 02.1067.001, 10 mL, Citrate). The 10 mL citrate-tubes were carefully inverted 10 times to mix blood and anticoagulant and centrifuged for 15 minutes at 1811 g at room temperature (Eppendorf, Centrifuge 5810R).
The relaxivities ri (where i=1, 2) were calculated on the basis of the measured relaxation rates Ri in water and plasma: Ri=Ri(0)+ri[CGd], where Ri(0) represent the relaxation rate of the respective solvent and CGd the concentration of the compound normalized to the Gadolinium. The Gadolinium concentrations of the investigated solutions were verified by Inductively Coupled Plasma Mass Spectrometry (ICP-MS Agilent 7500a, Waldbronn, Germany).

SMILES | r1 human plasma [1] [L/mmol/s] | r1 water [1] [L/mmol/s] | Solubility [2] [mg/100 mL] | Diffusion half-live (20 kDa) [3] [h] | r1 human plasma [4] [L/mmol/s] | r1 water [4] [L/mmol/s]
COCCN(CC(=O)NCC(CNC(=O)CN(CCOC)C(=O)CN1CCN(CC(=O)[O-])CCN(CC(=O)[O-])CCN(CC(=O)[O-])CC1)(CNC(=O)CN(CCOC)C(=O)CN1CCN(CC(=O)[O-])CCN(CC(=O)[O-])CCN(CC(=O)[O-])CC1)CNC(=O)CN(CCOC)C(=O)CN1CCN(CC(=O)[O-])CCN(CC(=O)[O-])CCN(CC(=O)[O-])CC1)C(=O)CN1CCN(CC(=O)[O-])CCN(CC(=O)[O-])CCN(CC(=O)[O-])CC1.[Gd+3].[Gd+3].[Gd+3].[Gd+3] [Example 3, Tetragadolinium {4,10-bis(carboxylatomethyl)-7-[15-(2-methoxyethyl)-10,10-bis[({[(2-methoxyethyl){[4,7,10-tris(carboxylatomethyl)-1,4,7,10-tetraazacyclododecan-1-yl]-acetyl}amino]acetyl}amino)methyl]-7,13,16-trioxo-5-{[4,7,10-tris(carboxylatomethyl)-1,4,7,10-tetraazacyclododecan-1-yl]acetyl}-2-oxa-5,8,12,15-tetraazaheptadecan-17-yl]-1,4,7,10-tetraazacyclododecan-1-yl}acetate] | 10.9 ± 0.1 | 9.5 ± 0.1 | >1000 | 11.6 | 11.7 | 10.3
CCOCCN(CC(=O)NCC(CNC(=O)CN(CCOCC)C(=O)CN1CCN(CC(=O)[O-])CCN(CC(=O)[O-])CCN(CC(=O)[O-])CC1)(CNC(=O)CN(CCOCC)C(=O)CN1CCN(CC(=O)[O-])CCN(CC(=O)[O-])CCN(CC(=O)[O-])CC1)CNC(=O)CN(CCOCC)C(=O)CN1CCN(CC(=O)[O-])CCN(CC(=O)[O-])CCN(CC(=O)[O-])CC1)C(=O)CN1CCN(CC(=O)[O-])CCN(CC(=O)[O-])CCN(CC(=O)[O-])CC1.[Gd+3].[Gd+3].[Gd+3].[Gd+3] [Example 4, Tetragadolinium {4,10-bis(carboxylatomethyl)-7-[16-(2-ethoxyethyl)-11,11-bis[({[(2-ethoxyethyl){[4,7,10-tris(carboxylatomethyl)-1,4,7,10-tetraazacyclododecan-1-yl]-acetyl}amino]acetyl}amino)methyl]-8,14,17-trioxo-6-{[4,7,10-tris(carboxylatomethyl)-1,4,7,10-tetraazacyclododecan-1-yl]acetyl}-3-oxa-6,9,13,16-tetraazaoctadecan-18-yl]-1,4,7,10-tetraazacyclododecan-1-yl}acetate] | 11.3 ± 0.01 | 10.1 ± 0.2 | >1000 | 10.1 | 12.5 | 11.1
CC(C)N(CC(=O)NCC(CNC(=O)CN(C(=O)CN1CCN(CC(=O)[O-])CCN(CC(=O)[O-])CCN(CC(=O)[O-])CC1)C(C)C)(CNC(=O)CN(C(=O)CN1CCN(CC(=O)[O-])CCN(CC(=O)[O-])CCN(CC(=O)[O-])CC1)C(C)C)CNC(=O)CN(C(=O)CN1CCN(CC(=O)[O-])CCN(CC(=O)[O-])CCN(CC(=O)[O-])CC1)C(C)C)C(=O)CN1CCN(CC(=O)[O-])CCN(CC(=O)[O-])CCN(CC(=O)[O-])CC1.[Gd+3].[Gd+3].[Gd+3].[Gd+3] [Example 5, Tetragadolinium [4,10-bis(carboxylatomethyl)-7-{3,13-diisopropyl-8,8-bis({[(isopropyl-{[4,7,10-tris(carboxylatomethyl)-1,4,7,10-tetraazacyclododecan-1-yl]acetyl}amino)-acetyl]amino}methyl)-2,5,11,14-tetraoxo-15-[4,7,10-tris(carboxylatomethyl)-1,4,7,10-tetraazacyclododecan-1-yl]-3,6,10,13-tetraazapentadec-1-yl}-1,4,7,10-tetraazacyclo-dodecan-1-yl]acetate] | 11.6 ± 0.4 | 10.2 ± 0.1 | >1000 | 10.8 | 13.1 | 11.1
O=C([O-])CN1CCN(CC(=O)[O-])CCN(CC(=O)N(CC(=O)NCC(CNC(=O)CN(C(=O)CN2CCN(CC(=O)[O-])CCN(CC(=O)[O-])CCN(CC(=O)[O-])CC2)C2CC2)(CNC(=O)CN(C(=O)CN2CCN(CC(=O)[O-])CCN(CC(=O)[O-])CCN(CC(=O)[O-])CC2)C2CC2)CNC(=O)CN(C(=O)CN2CCN(CC(=O)[O-])CCN(CC(=O)[O-])CCN(CC(=O)[O-])CC2)C2CC2)C2CC2)CCN(CC(=O)[O-])CC1.[Gd+3].[Gd+3].[Gd+3].[Gd+3] [Example 7, Tetragadolinium [4,10-bis(carboxylatomethyl)-7-{3,13-dicyclopropyl-8,8-bis({[(cyclopropyl{[4,7,10-tris(carboxylatomethyl)-1,4,7,10-tetraazacyclododecan-1-yl]acetyl}-amino)acetyl]amino}methyl)-2,5,11,14-tetraoxo-15-[4,7,10-tris(carboxylatomethyl)-1,4,7,10-tetraazacyclododecan-1-yl]-3,6,10,13-tetraazapentadec-1-yl}-1,4,7,10-tetra-azacyclododecan-1-yl]acetate] | 11.1 ± 0.1 | 9.7 ± 0.1 | >1000 | 14.0 | 12.1 | 10.6
